# In patent EP2108954A1, “A test system for detecting intracellular cyclic nucleotide level and methods and uses thereof” (Max-Planck-Gesellschaft zur Förderung der Wissenschaften …, priority 2008, dated 2009):
# Biological target: T1, Or22a (Drosophila melanogaster, UniProt P81909)
# T1 construct: expressed in transfected cells; host or cells: HEK293
# T1 sequence (P81909 1-397): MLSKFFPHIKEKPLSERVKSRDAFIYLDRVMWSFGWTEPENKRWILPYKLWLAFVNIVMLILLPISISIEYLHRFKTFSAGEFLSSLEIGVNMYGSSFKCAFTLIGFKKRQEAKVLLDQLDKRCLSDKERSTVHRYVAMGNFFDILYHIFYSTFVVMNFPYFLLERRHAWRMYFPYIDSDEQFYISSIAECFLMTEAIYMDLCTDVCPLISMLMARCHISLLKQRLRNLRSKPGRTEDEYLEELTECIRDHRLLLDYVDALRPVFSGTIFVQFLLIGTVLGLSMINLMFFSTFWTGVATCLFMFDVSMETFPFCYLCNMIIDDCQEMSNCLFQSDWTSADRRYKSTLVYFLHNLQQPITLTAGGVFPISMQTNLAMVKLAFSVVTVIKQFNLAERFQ
# Assay: Whole-cell patch-clamp of HEK293 cells expressing Or22a alone
# Type: cell-based
# Conditions: HEK293 cells transfected with Or22a alone, -60 mV, n = 6
# Method: HEK293 cells were cultured as described by Wicher and colleagues (Wicher et al., J. Biol. Chem. 281, 3227-36 (2006)). In brief, HEK293 cells were cultured at a density of ∼2*10^4 per 35-mm dish and transfected with 1 µg pcDNA3-DOR22a-GFP and 1 µg pcDNA3-DOR83b-GFP (Neuhaus, et al., Nat. Neurosci. 8, 15-17 (2005); DNAs were a generous gift of Dr. E. Neuhaus and Dr. H. Hatt) using Roti-Fect transfection kit (Roth, Karlsruhe, Germany). In some experiments we transfected cells with pcDNA3-DOR22a-GFP or pcDNA3-DOR83b-GFP alone. We also examined the properties of DOR47a, which was cloned, using standard molecular biology methods into a pcDNA3.1(-) expression vector. To test for putative G-protein coupling, cells were transfected with the respective OR-DNA together with 1.5 µg hHCN2/pcDNA3 (provided by M. Biel, Munich, Germany), with 1 µg hKCNQ4/pcDNA3.1 or with 1 µg hCNGA2/pCMV6-XL4 (Origene, Rockville, MD, USA).
# Ion currents in HEK293 cells were measured with the patch-clamp technology as described (Wicher et al, J. Biol. Chem. 281, 3227-36 (2006)). In brief, ion currents in HEK293 cells were measured at room temperature using whole-cell patch-clamp with appropriate compensation of series resistance and of capacitive currents. Additional experiments were performed in the outside-out configuration. […]
compound,measurement,value
"CCCC(=O)OCC [Etb, ethyl butyrate]",inward current upon short Etb application,no current was observed
